Molecules are shown by their SMILES.

Experiment [1] has as its system IFN induction in dsDNA-stimulated human whole blood. In words: Human whole blood assay (hWB IC50), dsDNA stimulated, IFNα2α production. To be noted: Table 1. The class given is cell-based. On the procedure: 6.3 Method: Human Whole Blood Assay (Human WB IC50)
For the detection of cellular cGAS activity human whole blood was stimulated by transfection with double stranded DNA. Pathway activity was monitored by measuring the IFNα2α production.
Compounds were delivered as 10 mM DMSO solution and serially diluted and transferred to the 96-well cell culture plate (Corning #3595), prefilled with 20 μl OptiMEM (Gibco, #11058-021) in each well, using an Echo acoustic dispenser. Typically, 8 concentrations were used with the highest concentration at 10 μM in the final assay volume followed by ^˜1:5 dilution steps. DMSO concentration was set to 0.1% in the final assay volume. The 96-well assay plate contained 10 test compounds, and DMSO in control wells.
Collection of human whole blood from 3 or more healthy donors (male or female, no medication for 7 days except contraceptive and thyroxine) as Na-Citrate blood (e.g. 3.8% in Monovettes from Sarstedt) was conducted in parallel. Whole blood was kept at room temperature for a maximum of 3 hours after collection until use in the assay. 160 μl of the whole blood samples was transferred to each well of the 96-well assay plates filled with compound/OptiMEM. All assay plates were prepared as duplicates with blood from different donors. Blood plates were kept at room temperature for 60 minutes and continuous shaking with 450 rpm, covered with the lid, but not sealed.
20 μl OptiMEM and 9.6:1 Fugene was added to all low control wells.
After covering assay plates with aera seals and the lid, blood plates were kept at room temperature for 30 minutes and continuous shaking with 450 rpm, followed by an overnight incubation of 22 h at 37° C. in the incubator, without shaking.
For the detection of IFNα-2α in human plasma, the biotinylated capture antibody (Antibody set IFNA2, Meso Scale Diagnostics #B21VH-3, including coating and capture antibody) was diluted 1:17.5 in Diluent 100 (Meso Scale Diagnostics #R50AA-4), according to the manufacturer's directions. U-Plex MSD GOLD 96-well Small Spot Strepavidin SECTOR Plates (Meso Scale Diagnostics #L45SA-5) were coated with 25 μl diluted capture antibody. Coated plates were incubated for 60 min at room temperature under continuous shaking at 700 rpm. MSD IFNα-2α plates were washed three times with 150 μl wash buffer (1× HBSS, 0.05% Tween).
After blocking the plates with 100 μl block solution/well (1× HBSS with 0.2% Tween, 2% BSA) for 60 min at room temperature and continuous shaking at 700 rpm, plates were emptied as dry as possible by dumping just before continuing with the human plasma.
Whole Blood assay plates were centrifuged at 1600 rpm for 10 minutes. 25 μl of supernatant was transferred with a pipetting robot from each whole blood plate to the corresponding IFNα-2α plate. Plates were sealed with microplate seals and kept at room temperature again under continuous shaking at 700 rpm for two hours.
Next MSD IFNα-2α plates were washed three times with 150 μl wash buffer (1× HBSS, 0.05% Tween), before adding 25 μl MSD SULFO-TAG IFNα-2α Antibody solution (1:100 diluted in Diluent 3 (Meso Scale Diagnostics #R50AP-2) to each well of the plates.
Afterwards plates were sealed with microplate seals and kept at room temperature again under continuous shaking at 700 rpm for two hours. Finally, MSD IFNα-2α plates were washed three times with 150 μl wash buffer (1× HBSS, 0.05% Tween). 150 μl 2× Read buffer was added to each well and plates were immediately measured with the MSD Sector S600 Reader using the vendor barcode.
(§1) Data Evaluation and Calculation:
For data evaluation and calculation, % control calculation of each well was based on the mean of high (DNA stimulated control) and mean of low (unstimulated control) controls by using the following formula:
[counts(sample)−counts(low))/(counts(high)−counts(low))]*100
The IC50-values were calculated using the standard 4 parameter logistic regression formula. […]

Experiment [2] deals with IFN induction in cGAMP-stimulated THP1 cells. The experiment is described as follows: cGAMP stimulated counter cell assay in THP1-Dual cells (THP1(cGAMP) IC50). It counts as cell-based, human. To be noted: Table 1; for IC50: Homo sapiens, THP-1, counter assay, 10 μM cGAMP stimulation, read-out: THP(cGAMP) IC50; for Ratio THP(cGAMP) IC50/THP(vir) IC50: selectivity for cGAS-inhibition.
Source text: 6.2 Method: Human cGAS Cell Assay and cGAMP Stimulated Counter Cell Assay (THP1(vir) IC50 and THP1(cGAMP) IC50)
For the counter assay, cells were stimulated by cGAMP (SigmaAldrich #SML1232) to activate the identical pathway independent and directly downstream of cGAS (measurement of THP1(cGAMP) IC50).
Pathway activity was monitored by measuring the Lucia luciferase activity induced by either DNA stimulated cGAS enzyme activity (measurement of THP1(vir) IC50) or by cGAMP directly (measurement of THP1(cGAMP) IC50, counter assay).
Compounds were delivered in 10 mM DMSO solution, serially diluted and transferred to the 384 well assay plate (Greiner #781201) using an Echo acoustic dispenser. Typically, 8 concentrations were used with the highest concentration at 10 μM in the final assay volume followed by ^˜1:5 dilution steps. DMSO concentration was set to 1% in the final assay volume. The 384 well assay plate contained […] (column 1-22), and DMSO in column 23 and 24.
Cells, cultivated according to manufacturer conditions, were harvested by centrifugation at 300 g/10 min and were then resuspended and diluted to 1.66E5 cells/ml in fresh cell culture medium (RPMI 1640 (Gibco #A10491-01), 10% FCS (Gibco #10500), 1× GlutaMax (Gibco #35050-061), 1× Pen/Strep solution (Gibco #15140-122), 100 μg/ml Normocin (InvivoGen #ant-nr), 100 μg/ml Zeocin (InvivoGen #ant-zn), 10 μg/ml Blasticidin S (Life Technologies #A11139-03)). The baculovirus solution was then added 1:200 (have varied according to virus batch) to the cells (measurement of THP1(vir) IC50).
30 μL of the cell/virus-mix were added to each well of the compound plate from column 1-23 via MultiDrop Combi dispenser (5000 cells/well). In column 24, 30 μl/5000 cells/well without virus were added as a low control.
The plates were then incubated for 18 h at 37° C. in a humidified incubator.
Following that, 15 μL of QuantiLuc detection reagent (InvivoGen #rep-qlcg5) were added to each well using a MultiDrop Combi. Measurement was done immediately after the addition using an EnVision reader (US-luminescence read-mode).
as §1
For data evaluation and calculation, the measurement of the low control was set as 0% control and the measurement of the high control was set as 100% control. The IC50 values were calculated using the standard 4 parameter logistic regression formula. Calculation: [y=(a−d)/(1+(x/c)^b)+d], a=low value, d=high value; x=conc M; c=IC50 M; b=slope

For the compound `C[C@H]1CN2CC[C@@H]1n1c(nc3cc(F)ccc31)O[C@H]1C[C@@H](C(=O)O)N(C1)c1nc(nc3c1oc1cc(F)ccc13)C(F)(F)CCCCCC2=O` [Example 1.15], inhibition in experiment [1] was half-maximal at 3 nM (IC50). Besides, in experiment [2], the 50% inhibitory concentration (IC50) was > 10000 nM and the “Ratio THP(cGAMP) IC50/THP(vir) IC50” value was >1408.
Taken in the same sequence, the figures for `C[C@H]1CN2CC[C@@H]1n1c(nc3ccccc31)O[C@H]1C[C@@H](C(=O)O)N(C1)c1nc(nc3c1oc1cc(Cl)ccc13)C(F)(F)CCCCCC2=O` [Example 1.16] were 10 nM, 11000 nM and 1134.
Taken in the same sequence, the figures for `C[C@H]1CN2CC[C@@H]1n1c(nc3ccccc31)O[C@H]1C[C@@H](C(=O)O)N(C1)c1nc(nc3c1oc1ccccc13)C(F)(F)CCCCC(F)(F)C2=O` [Example 1.17] were 8 nM, 6600 nM and 519.
On the same counts, the results for `C[C@H]1CN2CC[C@@H]1n1c(nc3cc(F)ccc31)O[C@H]1C[C@@H](C(=O)O)N(C1)c1nc(nc3c1oc1ccccc13)C(F)(F)CCCCC(F)(F)C2=O` [Example 1.18] are 10 nM, 10000 nM and 270.
As for `C[C@H]1CN2CC[C@@H]1n1c(nc3ccccc31)O[C@H]1C[C@@H](C(=O)O)N(C1)c1nc(nc3c1oc1ccccc13)CCCCCC2=O` [Example 1.19], the IC50 in experiment [1] was found to be 18 nM; in experiment [2], 11000 nM. Further, in experiment [2], the “Ratio THP(cGAMP) IC50/THP(vir) IC50” value is 277.
Consider `CC1CCc2nc(c3oc4ccccc4c3n2)N2C[C@H](C[C@H]2C(=O)O)Oc2nc3cc(Cl)ccc3n2[C@H]2CCN(C[C@@H]2C)C(=O)CCO1` (stereo partly drawn) [Example 1.20], for which, in experiment [1], the IC50 is 7 nM. Further, in experiment [2], the IC50 was > 10000 nM and the “Ratio THP(cGAMP) IC50/THP(vir) IC50” value is >773.
On the same counts, the results for `C[C@H]1CN2CC[C@@H]1n1c(nc3cc(Cl)ccc31)O[C@H]1C[C@@H](C(=O)O)N(C1)c1nc(nc3c1oc1ccccc13)C(F)(F)CCCOCC2=O` [Example 1.21] are 1 nM, > 10000 nM and >5238.
On the same counts, the results for `C[C@H]1CN2CC[C@@H]1n1c(nc3ccccc31)O[C@H]1C[C@@H](C(=O)O)N(C1)c1nc(nc3c1oc1cc(Cl)ccc13)C(F)(F)CCCOCC2=O` [Example 1.22] are 4 nM, > 10000 nM and >6579.
On the same counts, the results for `C[C@H]1CN2CC[C@@H]1n1c(nc3ccccc31)O[C@H]1C[C@@H](C(=O)O)N(C1)c1nc(nc3c1oc1ccccc13)CCCC(C)(C)CCC2=O` [Example 1.23] are 143 nM, 9500 nM and 51.
As to `C[C@H]1CCCCC(=O)N2CCC(CC2)n2c(nc3ccccc32)O[C@H]2C[C@@H](C(=O)O)N(C2)c2nc1nc1c2oc2ccccc21` [Example 1.25], in experiment [1], the IC50 was determined as 41 nM. For the same compound, in experiment [2], the IC50 was > 10000 nM and the “Ratio THP(cGAMP) IC50/THP(vir) IC50” value is >1251.
Taken in the same sequence, the figures for `C[C@@H]1CCCCC(=O)N2CCC(CC2)n2c(nc3ccccc32)O[C@H]2C[C@@H](C(=O)O)N(C2)c2nc1nc1c2oc2ccccc21` [Example 1.26] were 19 nM, 15000 nM and 2687.
On the same counts, the results for `Cc1cccc2c1nc1n2[C@@H]2CCN(C[C@H]2C)C(=O)CCCCCC(F)(F)c2nc(c3oc4ccccc4c3n2)N2C[C@H](C[C@H]2C(=O)O)O1` [Example 1.27] are 1580 nM, 6000 nM and 33.
Taken in the same sequence, the figures for `Cc1cccc2c1nc1n2[C@H]2CCN(C[C@@H]2C)C(=O)CCCCCC(F)(F)c2nc(c3oc4ccccc4c3n2)N2C[C@H](C[C@H]2C(=O)O)O1` [Example 1.28] were 28 nM, 4000 nM and 267.
On to `C[C@H]1CN2CC[C@@H]1n1c(nc3ccccc31)O[C@H]1C[C@@H](C(=O)O)N(C1)c1nc(nc3c1oc1ccccc13)C(F)(F)COCCCCC2=O` [Example 3.01], for which, in experiment [1], the IC50 was 1 nM. Besides, in experiment [2], the IC50 is 14000 nM and the “Ratio THP(cGAMP) IC50/THP(vir) IC50” value is 32066.
Take `C[C@H]1CN2CC[C@@H]1n1c(nc3ccccc31)O[C@H]1C[C@@H](C(=O)O)N(C1)c1nc(nc3c1oc1ccccc13)C(F)(F)COCCCC2=O` [Example 4.01]: the IC50 in experiment [1] was 1 nM; in experiment [2], > 10000 nM. Besides, in experiment [2], the “Ratio THP(cGAMP) IC50/THP(vir) IC50” value is given as >14442.
Taken in the same sequence, the figures for `O=C(O)[C@@H]1C[C@H]2CN1c1nc(nc3c1oc1ccccc13)COCCCCCC(=O)N1CCC(CC1)n1c(nc3cccc(F)c31)O2` [Example 5.01] were 33 nM, > 10000 nM and >260.
Taken in the same sequence, the figures for `C[C@H]1CN2CC[C@@H]1n1c(nc3cc(Cl)ccc31)O[C@H]1C[C@@H](C(=O)O)N(C1)c1nc(nc3c1oc1ccccc13)C(F)(F)OCCCCC2=O` [Example 6.01] were 3 nM, > 10000 nM and >2225.
On the same counts, the results for `C[C@@H]1CC(=O)N2CCC(CC2)n2c(nc3ccccc32)O[C@H]2C[C@@H](C(=O)O)N(C2)c2nc(nc3c2oc2ccccc23)CCCO1` [Example 7.01] are 101 nM, 3500 nM and 23.
In experiment [1], `O=C(O)[C@@H]1C[C@H]2CN1c1nc(nc3c1oc1ccccc13)COCCCC(F)(F)C(=O)N1CCC(CC1)n1c(nc3ccccc31)O2` [Example 8.01] registered an IC50 of 35 nM. In experiment [2], the IC50 was > 10000 nM and the “Ratio THP(cGAMP) IC50/THP(vir) IC50” value was 255.
